Experimental data as given in patent US20210332036A1, “PYRIMIDINE AND PYRAZINE HDAC1,2 INHIBITORS” (REGENACY PHARMACEUTICALS, LLC, priority 2018, published 2021).

Key:
HDAC3 = target: T1, HDAC3 (Homo sapiens, UniProt O15379); assay: HDAC enzyme assay, HDAC3; type: biochemical; details: 17 μM substrate, 10 min preincubation
T1 construct: purchased BPS Biosciences
Procedure: (§1) Compounds for testing were diluted in DMSO to 50 fold the final concentration and a ten-point three-fold dilution series was made. The compounds were diluted in assay buffer (50 mM HEPES, pH 7.4, 100 mM KCl, 0.001% Tween-20, 0.05% BSA, 20 μM TCEP) to 6-fold their final concentration. The HDAC enzymes (purchased from BPS Biosciences) were diluted to 1.5-fold their final concentration in assay buffer. The tripeptide substrate and trypsin at 0.05 μM final concentration were diluted in assay buffer at 6-fold their final concentration. The final enzyme concentrations used in these assays were 3.3 ng/ml (HDAC1), 0.2 ng/ml (HDAC2) and 0.08 ng/ml (HDAC3). The final substrate concentrations used were 16 μM (HDAC1), 10 μM (HDAC2) and 17 μM (HDAC3).
(§2) Five μl of compounds and 20 μl of enzyme were added to wells of a black, opaque 384 well plate in duplicate. Enzyme and compound were incubated together at room temperature for 10 minutes. Five μl of substrate was added to each well, the plate was shaken for 60 seconds and placed into a Victor 2 microtiter plate reader. The development of fluorescence was monitored for 60 min and the linear rate of the reaction was calculated. The IC50 was determined using Graph Pad Prism by a four parameter curve fit.

HDAC1 = target: T2, HDAC1 (Homo sapiens, UniProt Q13547); assay: HDAC enzyme assay, HDAC1; type: biochemical; details: 16 μM substrate, 10 min preincubation
T2 construct: purchased BPS Biosciences
T2 sequence (Q13547 whole entry): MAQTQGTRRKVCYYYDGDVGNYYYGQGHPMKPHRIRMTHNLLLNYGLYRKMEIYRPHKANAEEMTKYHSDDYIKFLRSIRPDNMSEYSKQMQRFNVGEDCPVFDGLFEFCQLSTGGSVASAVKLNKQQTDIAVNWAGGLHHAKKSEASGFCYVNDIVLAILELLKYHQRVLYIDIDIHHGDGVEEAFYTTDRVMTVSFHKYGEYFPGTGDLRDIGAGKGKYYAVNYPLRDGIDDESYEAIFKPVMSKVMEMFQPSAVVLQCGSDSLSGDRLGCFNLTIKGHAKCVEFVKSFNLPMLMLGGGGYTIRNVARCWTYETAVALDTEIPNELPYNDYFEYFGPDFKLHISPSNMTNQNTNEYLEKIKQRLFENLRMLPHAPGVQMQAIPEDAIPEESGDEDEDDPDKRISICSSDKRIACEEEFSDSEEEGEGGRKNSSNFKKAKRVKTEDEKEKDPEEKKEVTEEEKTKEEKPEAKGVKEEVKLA
Procedure: as §1, §2

HDAC2 = target: T3, HDAC2 (Homo sapiens, UniProt Q92769); assay: HDAC enzyme assay, HDAC2; type: biochemical; details: 10 μM substrate, 10 min preincubation
T3 construct: purchased BPS Biosciences
T3 sequence (Q92769 whole entry): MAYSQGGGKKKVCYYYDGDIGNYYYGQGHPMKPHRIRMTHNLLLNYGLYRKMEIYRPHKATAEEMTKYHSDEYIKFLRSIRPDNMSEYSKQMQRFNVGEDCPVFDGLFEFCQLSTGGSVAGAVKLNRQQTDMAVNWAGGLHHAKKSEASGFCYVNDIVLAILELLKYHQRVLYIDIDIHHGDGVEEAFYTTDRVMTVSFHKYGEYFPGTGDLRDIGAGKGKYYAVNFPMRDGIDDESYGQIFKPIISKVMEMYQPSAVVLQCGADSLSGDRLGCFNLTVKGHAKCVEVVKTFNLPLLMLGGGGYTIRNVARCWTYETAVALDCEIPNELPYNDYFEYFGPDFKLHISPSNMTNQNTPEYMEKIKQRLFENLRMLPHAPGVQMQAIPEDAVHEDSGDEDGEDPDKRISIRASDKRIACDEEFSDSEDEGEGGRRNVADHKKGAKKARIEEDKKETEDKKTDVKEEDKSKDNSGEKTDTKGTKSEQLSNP
Procedure: as §1, §2

[1] = PK parameters, IV dosing (plasma and brain exposure); type: in vivo; parameters: AUC(0-t): concentration or dose not given beside the values; details: Mouse IV; for Kp: brain/plasma, read-out: Brain AUC/Plasma AUC
Procedure: [The procedure below names another organism; the source lists this organism under the same test.] Male SD rats were fasted overnight. Compounds of the invention were dissolved in dimethyl acetamide at 10 times the final concentration, then Solutol HS 15 (BASF) was added to a final concentration of 10%. Finally 80% saline was added and vortexed to achieve a clear solution. For the IV dosing three animals were injected via the foot dorsal vein with 1 mg/kg compound. For the PO dosing 5 mg/kg of compound was delivered by oral gavage. Blood was collected via the tail vein into K2EDTA tubes at 5 minutes, 15 minutes, 30 minutes, 1 hour, 2 hours, 4 hours, 8 hours and 24 hours after dosing. The blood was centrifuged at 2000 g for 5 minutes at 4° C. to obtain plasma. The plasma was extracted with acetonitrile and the level of compound was analyzed by LC/MS/MS. The level of compound in plasma was calculated from a standard curve in rat plasma. The IV clearance (L/h/kg) and area under the curve (h*ng/mL) were calculated using WinNonLin software. The dose adjusted area under the curve for the IV and oral dosing were used to calculate the oral bioavailability.
Pharmacokinetic properties were assessed in a rat cassette dosing experiment. The IV clearance (IV Clr.) is in units of L/hr/kg. The oral maximum plasma concentration (PO Cmax) is in units of ng/ml. The oral plasma half-life (PO T1/2) is in units of hours. The oral area under the curve (PO AUC) is in units of hours*ng/ml. The fraction absorbed by the oral route (F %) is a percentage of the oral area under the curve to the IV area under the curve, dose adjusted.

[2] = PK parameters, IP dosing (plasma and brain exposure); type: in vivo; parameters: AUC(0-t): concentration or dose not given beside the values; details: Mouse IP; for Kp: brain/plasma, read-out: Brain AUC/Plasma AUC
[3] = brain, read-out: AUC(last) Brain
[4] = plasma, read-out: AUC(last) Plasma

T1 sequence (O15379 whole entry): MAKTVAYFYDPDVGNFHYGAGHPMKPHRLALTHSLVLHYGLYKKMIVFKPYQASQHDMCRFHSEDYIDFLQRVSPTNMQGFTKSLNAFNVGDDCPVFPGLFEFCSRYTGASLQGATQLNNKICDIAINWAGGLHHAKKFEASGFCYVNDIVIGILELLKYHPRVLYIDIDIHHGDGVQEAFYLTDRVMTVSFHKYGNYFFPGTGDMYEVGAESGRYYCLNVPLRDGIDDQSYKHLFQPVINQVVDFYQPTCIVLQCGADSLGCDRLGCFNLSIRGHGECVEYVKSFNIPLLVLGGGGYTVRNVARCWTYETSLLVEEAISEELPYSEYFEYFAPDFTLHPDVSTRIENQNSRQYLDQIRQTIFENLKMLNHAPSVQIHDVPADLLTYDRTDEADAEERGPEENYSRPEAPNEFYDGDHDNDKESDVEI
T1 sequence (Q9Y618 395-489 partner limits assumed): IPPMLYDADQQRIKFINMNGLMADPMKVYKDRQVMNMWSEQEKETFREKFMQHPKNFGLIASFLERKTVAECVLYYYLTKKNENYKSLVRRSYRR

Structure (SMILES)	IC50 (HDAC3) [nM]	IC50 (HDAC1) [nM]	IC50 (HDAC2) [nM]	AUC(0-t) [1, 3] [ng·h/mL]	AUC(0-t) [1, 4] [ng·h/mL]	Kp [1]	AUC(0-t) [2, 3] [ng·h/mL]	AUC(0-t) [2, 4] [ng·h/mL]	Kp [2]
Cc1ccc(-c2ccc(N)c(NC(=O)c3ccc(N4CCNCC4)cn3)c2)cc1 [Compound 001]	480 to 490	10 to 20	30 to 40	19000 to 20000	1400 to 1500	10 to 15	64700 to 64800	6700 to 6800	1 to 5
Nc1cc(F)c(-c2cccs2)cc1NC(=O)c1ccc(N2CCNCC2)cn1 [Compound 002]	200 to 210	1 to 10	10 to 20	9000 to 10000	400 to 500	20 to 25	23100 to 23200	2400 to 2500	5 to 10
Nc1ccc(-c2ccccc2)cc1NC(=O)c1ccc(N2CCNCC2)nn1 [Compound 003]	170 to 180	1 to 10	20 to 30	3000 to 4000	1000 to 1100	1 to 5	7900 to 8000	4700 to 4800	1 to 5
COCCOc1ccc(C(=O)Nc2cc(-c3cccs3)ccc2N)nc1 [Compound 004]	440 to 450	1 to 10	50 to 60	500 to 600	700 to 800	0.1 to 1.5	2100 to 2200	2300 to 2400	0.1 to 1.5
Nc1ccc(-c2cccs2)cc1NC(=O)c1ccc(OCCO)cn1 [Compound 005]	110 to 120	1 to 10	10 to 20	600 to 700	600 to 700	0.8 to 1.2	2000 to 2100	2300 to 2400	0.1 to 1.5
CN1CCN(c2cnc(C(=O)Nc3cc(-c4cccs4)ccc3N)nc2)CC1 [Compound 006]	80 to 90	1 to 10	40 to 50	700 to 800	200 to 300	2 to 4	700 to 800	800 to 900	0.1 to 1.5
Nc1ccc(-c2cccs2)cc1NC(=O)c1ncc(N2CCNCC2)cn1 [Compound 007]	170 to 180	10 to 20	90 to 100	30 to 40	400 to 500	0.01 to 0.1	900 to 1000	1800 to 1900	0.1 to 1.5
COCCOc1ccc(C(=O)Nc2cc(-c3cccs3)ccc2N)nn1 [Compound 008]	260 to 270	1 to 10	20 to 30	200 to 300	600 to 700	0.1 to 1.5	1300 to 1400	2900 to 3000	0.1 to 1.5
Nc1ccc(-c2ccccc2)cc1NC(=O)c1ncc(N2CCNCC2)cn1 [Compound 009]	200 to 210	10 to 20	70 to 80	300 to 400	300 to 400	0.8 to 1.5	200 to 300	1700 to 1800	0.1 to 1.5
CC(=O)N1CCN(c2ccc(C(=O)Nc3cc(-c4cccs4)ccc3N)nc2)CC1 [Compound 010]	120 to 130	1 to 10	10 to 20	200 to 300	500 to 600	0.1 to 1.5	200 to 300	2000 to 2100	0.1 to 1.5
CNS(=O)(=O)Oc1ccc(-c2ccc(N)c(NC(=O)c3ccc(N4CCN(C)CC4)cn3)c2)cc1 [Compound 011]	> 2000	1 to 10	10 to 20	100 to 200	200 to 300	0.1 to 1.5	< 100	900 to 1000	0.1 to 1.5
Nc1ccc(-c2cncs2)cc1NC(=O)c1ccc(N2CCNCC2)cn1 [Compound 012]	20 to 30	1 to 10	10 to 20	400 to 500	800 to 900	0.1 to 1.5	300 to 400	4300 to 4400	0.01 to 0.1
Nc1ccc(-c2cccs2)cc1NC(=O)c1ccc(OC[C@H](O)CO)cn1 [Compound 013]	140 to 150	1 to 10	20 to 30	200 to 300	1100 to 1200	0.1 to 0.3	300 to 400	5900 to 6000	0.01 to 0.1
Nc1ccc(-c2cccs2)cc1NC(=O)c1ccc(NC2CCN(C(=O)N3CCNCC3)CC2)cn1 [Compound 014]	50 to 60	1 to 10	10 to 20	100 to 200	1500 to 1600	0.05 to 0.1	200 to 300	7400 to 7500	0.01 to 0.1
Nc1ccc(-c2ccoc2)cc1NC(=O)c1ncc(N2CCNCC2)cn1 [Compound 015]	110 to 120	10 to 20	30 to 40	100 to 200	500 to 600	0.1 to 1.5	< 100	3200 to 3300	0.01 to 0.1
Nc1ccc(-c2ccccc2)cc1NC(=O)c1ncc(NCCOCc2cccnc2)cn1 [Compound 016]	230 to 240	1 to 10	30 to 40	< 100	300 to 400	0.01 to 0.1	< 100	900 to 1000	0.001 to 0.01
Nc1ccc(-c2cccs2)cc1NC(=O)c1cnc(N2CCNCC2)cn1 [Compound 017]	30 to 40	1 to 10	5 to 15	9000 to 10000	600 to 700	–	25000 to 25300	2700 to 2800	–
